Laboratory results reported in US20240368122A1, “JAK2 INHIBITORS AND METHODS OF USE THEREOF” (RELAY THERAPEUTICS, INC., priority 2021, published 2024).
Where two headings read alike, the source gives them in different places.

How the values were obtained:
[1] = target: T1, JAK2 JH2 WT (V536-D812) [W659A, W777A, F794H solubilizing mutations] (Homo sapiens, UniProt O60674, F794H/W659A/W777A); test: Surface Plasmon Resonance (SPR) binding assay, JAK2 JH2 domain
T1 construct: **JAK2 JH2 WT (V536-D812) [W659A, W777A, F794H solubilizing mutations]; C-thrombin-avi-His6; thrombin cleavage site (C); His6 (C); purchased Biortus
In short: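 Kinetics came from 1:1 fits of single-cycle runs at 20 °C: four 3-fold dilutions from 5 uM for JH1 or 500 nM for JH2, 60 s association, and 300 s or 1200 s dissociation respectively. Protein was freshly captured per compound in the presence of 10 uM stabilizer compound, with running buffer of pH 7.5 HEPES/NaCl/glycerol/DTT plus 2% DMSO.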

[2] = tested on: TF1 JAK2 V617F STAT3 reporter; test: Cellular TF1 STAT3 assay (luciferase reporter), JAK2 V617F; type: cell-based; conditions: read-out: Cell PD-TF1 JAK2 V617F STAT3 (IC50)
In short: (§1)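 Measured in TF1 cells with mutant JAK2 V617F and STAT-responsive luciferase: 18-20 h compound exposure at 37 °C, then ONE-glo luminescence.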

[3] = target: T2, JAK2 JH1 WT (T842-G1132) (Homo sapiens, UniProt O60674); test: Surface Plasmon Resonance (SPR) binding assay, JAK2 JH1 domain
T2 construct: *JAK2 JH1 WT (T842-G1132) N-His60-avi-TEV; His6 (N); TEV cleavage site (N); purchased Biortus
Description: Selected compounds of the present disclosure were tested in a Surface Plasmon Resonance (SPR) Assay to measure their binding kinetics and affinity for proteins of interest.
Prepare buffer: 50 mM HEPES pH 7.5, 150 mM NaCl, 0.05% (v/v) Tween, and 10% (v/v) glycerol were combined and pH was adjusted to 7.5, then filtered. 5 mM DTT, was added, and buffer without DMSO was reserved for compound resuspension. 2% (v/v) DMSO was added for assay buffer, and separately 1% DMSO was used to make buffer for resuspending compounds.
Prepare compounds: Using a Bravo liquid handler, 99 μL of 1% (v/v) DMSO assay buffer was added to 1 μL compounds in DMSO.
Run 8K Method: Biotin CAPture (CAP) chip surface was regenerated prior to run by: Inserting CAP chip into Biacore 8K, prime machine with assay buffer with 2% (v/v) DMSO; Setting instrument temperature to 20° C.; Conditioning surface with NaOH/GdnHCl reagents from CAP chip kit (60 seconds, 10 μL/min); and Capturing oligo-Streptavidin (SA) reagent from CAP kit (600 seconds, 1 μL/min), expected capture ˜2500 RU. JAK2 JH1 or JH2 protein was immobilized by preparing a sample of 0.5 uM JH1 or 0.4 uM JH2 protein diluted in assay buffer without DMSO and supplemented with 10 uM of a selected compound of the invention as a stabilizer (370 seconds, 5 uL/min), expected capture ˜1000 RU. Remaining biotin sites on SA were blocked with 1 uM biotin (30 seconds, 20 uL/min), then equilibrated for 1800 seconds at 100 uL/min. Compounds being assayed were run in single cycle kinetics: 4 doses with a top concentration of 5 uM (JH1) or 500 nM (JH2), dilution factor of 3, at 20° C., for a contact time of 60 seconds, and a dissociation time of 300 seconds (JH1) or 1200 seconds (JH2), at a flow rate of 30 uL/min. The surface was completely regenerated after each compound is run, and JH1 or JH2 protein was immobilized fresh prior to each new compound. Data were fitted kinetically with 1:1 binding model using Biacore Insight Evaluation Software.

[4] = tested on: TF1 JAK2 V617F STAT5 reporter; test: Cellular TF1 STAT5 assay (luciferase reporter), JAK2 V617F; type: cell-based; conditions: read-out: Cell PD TF1 V617F STAT5 (IC50)
In short: as §1

[5] = Homo sapiens, TF-1, TF1 cells, JAK2 V617F

T2 sequence (O60674 842-1132): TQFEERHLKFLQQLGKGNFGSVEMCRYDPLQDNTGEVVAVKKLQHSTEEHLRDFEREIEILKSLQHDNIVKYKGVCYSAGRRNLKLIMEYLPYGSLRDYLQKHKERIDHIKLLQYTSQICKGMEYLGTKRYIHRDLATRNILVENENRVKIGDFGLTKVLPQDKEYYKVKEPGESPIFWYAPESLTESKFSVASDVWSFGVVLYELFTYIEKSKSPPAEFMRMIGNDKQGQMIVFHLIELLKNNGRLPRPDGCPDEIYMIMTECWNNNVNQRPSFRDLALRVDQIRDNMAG
T1 sequence (O60674 536-812 W659A/W777A/F794H): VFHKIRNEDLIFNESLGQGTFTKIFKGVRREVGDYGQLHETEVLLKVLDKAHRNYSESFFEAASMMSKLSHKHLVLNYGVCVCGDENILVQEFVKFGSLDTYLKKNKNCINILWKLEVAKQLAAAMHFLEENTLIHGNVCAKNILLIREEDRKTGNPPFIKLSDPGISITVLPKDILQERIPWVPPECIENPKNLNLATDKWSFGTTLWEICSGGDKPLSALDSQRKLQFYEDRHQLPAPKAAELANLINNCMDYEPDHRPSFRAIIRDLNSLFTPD

Row | Structure (SMILES) | Kd ([1]; SPR, JAK2 JH2 domain) [nM] | IC50 ([2]; TF1 JAK2 V617F) [nM] | Kd ([3]; SPR, JAK2 JH1 domain) [nM] | IC50 ([4]; TF1 JAK2 V617F) [nM] | Kd [1] [nM] | IC50 [2, 5] [nM] | Kd [3] [nM] | IC50 [4, 5] [nM]
1 | CNC(=O)c1nnc(NC(=O)C2CC2)cc1Nc1cccc(-c2ccc(C(=O)NCc3cccn(C)c3=O)nn2)c1OC [Compound 8] | 0.01 to 10 | 500 to 5000 | 5000 to 100000 | 5000 to 100000 |  |  |  | 
2 | CNC(=O)c1nnc(NC(=O)C2CC2)cc1Nc1cccc(-c2cnc(C(=O)N(C)Cc3cccnn3)c(F)c2)c1OC [Compound 48] | 0.01 to 10 | 500 to 5000 | 5000 to 100000 | 500 to 5000 |  |  |  | 
3 | CNC(=O)c1nnc(NC(=O)C2CC2)cc1Nc1cccc(-c2cnc(C(=O)N(C)Cc3cc(C#N)ccn3)c(F)c2)c1OC [Compound 28] | 0.01 to 10 | 50 to 500 | 5000 to 100000 | 50 to 500 |  |  |  | 
4 | CNC(=O)c1nnc(NC(=O)C2CC2)cc1Nc1cccc(-c2ccc(C(=O)N(C)Cc3cnn(C)c3)nc2)c1OC [Compound 17] | 0.01 to 10 | 50 to 500 | 5000 to 100000 | 50 to 500 |  |  |  | 
5 | CNC(=O)c1nnc(NC(=O)C2CC2)cc1Nc1cccc(-c2ccc(C(=O)NCc3cccn(C)c3=O)nc2)c1OC [Compound 4] | 0.01 to 10 | 500 to 5000 | 5000 to 100000 | 500 to 5000 |  |  |  | 
6 | CNC(=O)c1nnc(NC(=O)C2CC2)cc1Nc1ccc(C)c(-c2cnc(C(=O)N(C)Cc3ccccn3)c(F)c2)c1OC [Compound 43] | 0.01 to 10 | 500 to 5000 | 5000 to 100000 | 500 to 5000 |  |  |  | 
7 | CNC(=O)c1nnc(NC(=O)C2CC2)cc1Nc1cccc(-c2cnn(C3CN(Cc4cccc(C(F)F)n4)C3)c2)c1OC [Compound 145] | 0.01 to 10 | 50 to 500 | 5000 to 100000 | 50 to 500 |  |  |  | 
8 | CNC(=O)c1nnc(NC(=O)C2CC2)cc1Nc1cc(F)cc(-c2cnn(C3CN(Cc4ccn(C)n4)C3)c2)c1OC [Compound 155] | 0.01 to 10 | 500 to 5000 | 5000 to 100000 | 500 to 5000 |  |  |  | 
9 | CNC(=O)c1nnc(NC(=O)C2CC2)cc1Nc1cccc(-c2cnn(C3CN(Cc4cccc(C#N)n4)C3)c2)c1OC [Compound 147] | 0.01 to 10 | 50 to 500 | 500 to 5000 | 50 to 500 |  |  |  | 
10 | CNC(=O)c1nnc(NC(=O)C2CC2)cc1Nc1cccc(-c2ccc(C(=O)N(C)Cc3cccnc3C#N)nc2)c1OC [Compound 136] | 0.01 to 10 | 50 to 500 | 5000 to 100000 | 500 to 5000 |  |  |  | 
11 | CNC(=O)c1nnc(NC(=O)C2CC2)cc1Nc1cccc(-c2ccc(C(=O)N(Cc3cc(C#N)ccn3)OC)nc2)c1OC [Compound 159] | 0.01 to 10 | 50 to 500 | 5000 to 100000 | 50 to 500 |  |  |  | 
12 | CNC(=O)c1nnc(NC(=O)C2CC2)cc1Nc1cccc(-c2nnc(C3CN(Cc4cccc(C)n4)C3)o2)c1OC [Compound 157] | 0.01 to 10 | 5000 to 100000 | 5000 to 100000 | 5000 to 100000 |  |  |  | 
13 | CNC(=O)c1nnc(NC(=O)C2CC2)cc1Nc1cccc(-c2cn(C3CN(Cc4ccccn4)C3)nn2)c1OC [Compound 150] | 0.01 to 10 | 500 to 5000 | 5000 to 100000 | 500 to 5000 |  |  |  | 
14 | CNC(=O)c1nnc(NC(=O)C2CC2)cc1Nc1cccc(-c2ccc(C(=O)NCc3cccn(C)c3=O)cc2)c1OC [Compound 1] | 0.01 to 10 | 500 to 5000 | 500 to 5000 | 500 to 5000 |  |  |  | 
15 | CNC(=O)c1nnc(NC(=O)C2CC2)cc1Nc1cccc(-c2cnn(C3CN(Cc4ccccn4)C3)c2)c1OC [Compound 39] | 0.01 to 10 | 50 to 500 | 500 to 5000 | 50 to 500 |  |  |  | 
16 | CNC(=O)c1nnc(NC(=O)C2CC2)cc1Nc1ccc(C)c(-c2cnc(C(=O)N(C)Cc3cc(C#N)ccn3)c(F)c2)c1OC [Compound 42] | 0.01 to 10 | 50 to 500 | 5000 to 100000 | 50 to 500 |  |  |  | 
17 | CNC(=O)c1nnc(NC(=O)C2CC2)cc1Nc1cccc(-c2ccc(C(=O)N(C)Cc3cccnc3)nc2)c1OC [Compound 30] | 0.01 to 10 | 50 to 500 | 5000 to 100000 | 50 to 500 |  |  |  | 
18 | CNC(=O)c1nnc(NC(=O)C2CC2)cc1Nc1cccc(-c2ccc(C(=O)N(C)Cc3c(C)ccnc3C)nc2)c1OC [Compound 133] | 0.01 to 10 | 50 to 500 | 5000 to 100000 | 50 to 500 |  |  |  | 
19 | CNC(=O)c1nnc(NC(=O)C2CC2)cc1Nc1cccc(-c2cn(C3CN(Cc4cccc(C#N)n4)C3)nc2CO)c1OC [Compound 329] |  |  |  |  | 0.01 to 10 | 500 to 5000 | 500 to 5000 | 500 to 5000
20 | CNC(=O)c1nnc(NC(=O)C2CC2)cc1Nc1cccc(-c2ccc(C(=O)N(C)Cc3cc(C#N)ccn3)cn2)c1OC [Compound 55] | 0.01 to 10 | 500 to 5000 | 5000 to 100000 | 500 to 5000 |  |  |  | 
21 | CNC(=O)c1nnc(NC(=O)C2CC2)cc1Nc1cccc(-c2ccc(C(=O)N(C)Cc3nnc(C)s3)nc2)c1OC [Compound 149] | 0.01 to 10 | 500 to 5000 | 5000 to 100000 | 500 to 5000 |  |  |  | 
22 | CNC(=O)c1nnc(NC(=O)C2CC2)cc1Nc1cccc(-c2cnn(C3CN(Cc4nc(C)cs4)C3)c2)c1OC [Compound 141] | 0.01 to 10 | 500 to 5000 | 5000 to 100000 | 500 to 5000 |  |  |  | 
23 | CNC(=O)c1nnc(NC(=O)C2CC2)cc1Nc1cccc(-c2cnn(C3CN(Cc4cnn(C)c4)C3)c2)c1OC [Compound 44] | 0.01 to 10 | 500 to 5000 | 500 to 5000 | 500 to 5000 |  |  |  | 
24 | CNC(=O)c1nnc(NC(=O)C2CC2)cc1Nc1cccc(-c2ccc(C(=O)N(C)Cc3nncs3)nc2)c1OC [Compound 146] | 0.01 to 10 | 500 to 5000 | 5000 to 100000 | 5000 to 100000 |  |  |  | 
25 | CNC(=O)c1nnc(NC(=O)C2CC2)cc1Nc1cccc(-c2cn(C3CN(Cc4cccc(C)n4)C3)nn2)c1OC [Compound 151] | 0.01 to 10 | 50 to 500 | 500 to 5000 | 50 to 500 |  |  |  | 
